{"source": "PubChem BioAssay (NCI)", "assay_in_all_cases": "NCI-60 cell line screen, 48 h", "key": {"786-0 renal": {"system": "786-0 renal"}, "A498 renal": {"system": "A498 renal"}, "A549 NSCLC": {"system": "A549 NSCLC"}, "ACHN renal": {"system": "ACHN renal"}, "BT-549 breast": {"system": "BT-549 breast"}, "CAKI-1 renal": {"system": "CAKI-1 renal"}, "COLO 205 colon": {"system": "COLO 205 colon"}, "DU-145 prostate": {"system": "DU-145 prostate"}, "EKVX NSCLC": {"system": "EKVX NSCLC"}, "HCC-2998 colon": {"system": "HCC-2998 colon"}, "HCT-116 colon": {"system": "HCT-116 colon"}, "HCT-15 colon": {"system": "HCT-15 colon"}, "HL-60(TB) leukemia": {"system": "HL-60(TB) leukemia"}, "HOP-62 NSCLC": {"system": "HOP-62 NSCLC"}, "HOP-92 NSCLC": {"system": "HOP-92 NSCLC"}, "HS 578T breast": {"system": "HS 578T breast"}, "HT29 colon": {"system": "HT29 colon"}, "IGROV1 ovarian": {"system": "IGROV1 ovarian"}, "K-562 leukemia": {"system": "K-562 leukemia"}, "KM12 colon": {"system": "KM12 colon"}, "LOX IMVI melanoma": {"system": "LOX IMVI melanoma"}, "M14 melanoma": {"system": "M14 melanoma"}, "MALME-3M melanoma": {"system": "MALME-3M melanoma"}, "MCF7 breast": {"system": "MCF7 breast"}, "MDA-MB-231 breast": {"system": "MDA-MB-231 breast"}, "MDA-MB-435": {"system": "MDA-MB-435"}, "MDA-N": {"system": "MDA-N"}, "MOLT-4 leukemia": {"system": "MOLT-4 leukemia"}, "NCI-H226 lung": {"system": "NCI-H226 lung"}, "NCI-H23 lung": {"system": "NCI-H23 lung"}, "NCI-H460 lung": {"system": "NCI-H460 lung"}, "NCI/ADR-RES ovarian": {"system": "NCI/ADR-RES ovarian"}, "OVCAR-3 ovarian": {"system": "OVCAR-3 ovarian"}, "OVCAR-4 ovarian": {"system": "OVCAR-4 ovarian"}, "OVCAR-5 ovarian": {"system": "OVCAR-5 ovarian"}, "OVCAR-8 ovarian": {"system": "OVCAR-8 ovarian"}, "PC-3 prostate": {"system": "PC-3 prostate"}, "RXF 393 renal": {"system": "RXF 393 renal"}, "SF-268 CNS": {"system": "SF-268 CNS"}, "SF-295 CNS": {"system": "SF-295 CNS"}, "SF-539 CNS": {"system": "SF-539 CNS"}, "SK-MEL-2 melanoma": {"system": "SK-MEL-2 melanoma"}, "SK-MEL-28 melanoma": {"system": "SK-MEL-28 melanoma"}, "SK-MEL-5 melanoma": {"system": "SK-MEL-5 melanoma"}, "SK-OV-3 ovarian": {"system": "SK-OV-3 ovarian"}, "SN12C renal": {"system": "SN12C renal"}, "SNB-19 CNS": {"system": "SNB-19 CNS"}, "SNB-75 CNS": {"system": "SNB-75 CNS"}, "T-47D breast": {"system": "T-47D breast"}, "TK-10 renal": {"system": "TK-10 renal"}, "U251 CNS": {"system": "U251 CNS"}, "UACC-257 melanoma": {"system": "UACC-257 melanoma"}, "UACC-62 melanoma": {"system": "UACC-62 melanoma"}, "UO-31 renal": {"system": "UO-31 renal"}}, "note": "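How tested: cells in 96-well plates exposed to compound for 48 hours at five concentrations. At the TGI there is no net growth.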", "data": [{"molecule": "C=C(C1=CC(=O)C(C)(C)O1)[C@@H]1CC=C([C@@H]2CC[C@H]3[C@@]2(C)CC[C@H]2C(C)(C)C(=O)[C@H](O)C[C@]32C)[C@H](O)O1", "values": [{"measurement": "TGI", "setting": "786-0 renal", "result": 0.79, "unit": "µM"}, {"measurement": "TGI", "setting": "A498 renal", "result": 9.89, "unit": "µM"}, {"measurement": "TGI", "setting": "A549 NSCLC", "result": 30.7, "unit": "µM"}, {"measurement": "TGI", "setting": "ACHN renal", "result": 3.04, "unit": "µM"}, {"measurement": "TGI", "setting": "BT-549 breast", "result": 21.6, "unit": "µM"}, {"measurement": "TGI", "setting": "CAKI-1 renal", "result": 14.2, "unit": "µM"}, {"measurement": "TGI", "setting": "COLO 205 colon", "result": 3.51, "unit": "µM"}, {"measurement": "TGI", "setting": "DU-145 prostate", "result": 2.91, "unit": "µM"}, {"measurement": "TGI", "setting": "EKVX NSCLC", "result": 22.2, "unit": "µM"}, {"measurement": "TGI", "setting": "HCC-2998 colon", "result": 7.49, "unit": "µM"}, {"measurement": "TGI", "setting": "HCT-116 colon", "result": 3, "unit": "µM"}, {"measurement": "TGI", "setting": "HCT-15 colon", "result": 5.16, "unit": "µM"}, {"measurement": "TGI", "setting": "HL-60(TB) leukemia", "result": 8.11, "unit": "µM"}, {"measurement": "TGI", "setting": "HOP-62 NSCLC", "result": 8.33, "unit": "µM"}, {"measurement": "TGI", "setting": "HOP-92 NSCLC", "result": 4.11, "unit": "µM"}, {"measurement": "TGI", "setting": "HS 578T breast", "result": 13.1, "unit": "µM"}, {"measurement": "TGI", "setting": "HT29 colon", "result": 3.48, "unit": "µM"}, {"measurement": "TGI", "setting": "IGROV1 ovarian", "result": 5.48, "unit": "µM"}, {"measurement": "TGI", "setting": "K-562 leukemia", "result": 8.01, "unit": "µM"}, {"measurement": "TGI", "setting": "KM12 colon", "result": 20.4, "unit": "µM"}, {"measurement": "TGI", "setting": "LOX IMVI melanoma", "result": 3.45, "unit": "µM"}, {"measurement": "TGI", "setting": "M14 melanoma", "result": 3.08, "unit": "µM"}, {"measurement": "TGI", "setting": "MALME-3M melanoma", "result": 5.27, "unit": "µM"}, {"measurement": "TGI", "setting": "MCF7 breast", "result": 1.61, "unit": "µM"}, {"measurement": "TGI", "setting": "MDA-MB-231 breast", "result": 4.74, "unit": "µM"}, {"measurement": "TGI", "setting": "MDA-MB-435", "result": 8.04, "unit": "µM"}, {"measurement": "TGI", "setting": "MDA-N", "result": 3.58, "unit": "µM"}, {"measurement": "TGI", "setting": "MOLT-4 leukemia", "result": 3.96, "unit": "µM"}, {"measurement": "TGI", "setting": "NCI-H226 lung", "result": 40.3, "unit": "µM"}, {"measurement": "TGI", "setting": "NCI-H23 lung", "result": 12.6, "unit": "µM"}, {"measurement": "TGI", "setting": "NCI-H460 lung", "result": 31.6, "unit": "µM"}, {"measurement": "TGI", "setting": "NCI/ADR-RES ovarian", "result": 25.4, "unit": "µM"}, {"measurement": "TGI", "setting": "OVCAR-3 ovarian", "result": 2.4, "unit": "µM"}, {"measurement": "TGI", "setting": "OVCAR-4 ovarian", "result": 10.3, "unit": "µM"}, {"measurement": "TGI", "setting": "OVCAR-5 ovarian", "result": 28, "unit": "µM"}, {"measurement": "TGI", "setting": "OVCAR-8 ovarian", "result": 4.75, "unit": "µM"}, {"measurement": "TGI", "setting": "PC-3 prostate", "result": 2.68, "unit": "µM"}, {"measurement": "TGI", "setting": "RXF 393 renal", "result": 3.59, "unit": "µM"}, {"measurement": "TGI", "setting": "SF-268 CNS", "result": 3.76, "unit": "µM"}, {"measurement": "TGI", "setting": "SF-295 CNS", "result": 22, "unit": "µM"}, {"measurement": "TGI", "setting": "SF-539 CNS", "result": 2.73, "unit": "µM"}, {"measurement": "TGI", "setting": "SK-MEL-2 melanoma", "result": 5.56, "unit": "µM"}, {"measurement": "TGI", "setting": "SK-MEL-28 melanoma", "result": 12.2, "unit": "µM"}, {"measurement": "TGI", "setting": "SK-MEL-5 melanoma", "result": 24.1, "unit": "µM"}, {"measurement": "TGI", "setting": "SK-OV-3 ovarian", "result": 27.9, "unit": "µM"}, {"measurement": "TGI", "setting": "SN12C renal", "result": 5.18, "unit": "µM"}, {"measurement": "TGI", "setting": "SNB-19 CNS", "result": 24.8, "unit": "µM"}, {"measurement": "TGI", "setting": "SNB-75 CNS", "result": 25.1, "unit": "µM"}, {"measurement": "TGI", "setting": "T-47D breast", "result": 3.41, "unit": "µM"}, {"measurement": "TGI", "setting": "TK-10 renal", "result": 2.64, "unit": "µM"}, {"measurement": "TGI", "setting": "U251 CNS", "result": 3.06, "unit": "µM"}, {"measurement": "TGI", "setting": "UACC-257 melanoma", "result": 4.52, "unit": "µM"}, {"measurement": "TGI", "setting": "UACC-62 melanoma", "result": 14.9, "unit": "µM"}, {"measurement": "TGI", "setting": "UO-31 renal", "result": 2.88, "unit": "µM"}]}]}
